Experiments:
primate = primate study, domperidone administered with BuTAC; cited from earlier work
[1] = clinical trials, Alzheimer disease; cited from earlier work
Male Swiss mice [2] = experiment: Antagonism of xanomeline-induced diarrhea in mice by oxybutynin (fecal pellet count); type: in vivo; details: i.p. oxybutynin 0.3 to 30 mg/kg, 30 min before xanomeline 30 mg/kg
Method: Male Swiss mice (4-6 weeks old), N=10 per treatment group were used. Animals were pretreated with i.p. oxybutynin (a representative peripheral muscarinic receptor antagonist) or vehicle; 30 minutes later animals were treated with xanomeline at a dose of 30 mg/kg that caused diarrhea (as determined in Experiment 1). The dose of oxybutynin ordinarily ranged from 0.3 to 30 mg/kg.
Mice were placed individually in cages without any bedding materials. During the experiment the number of fecal pellets was counted at different time-points as outlined below: • T−1 h to T0: counting of the accumulated fecal pellets excreted. • T0: administration of oxybutinin. • T30 min: administration of vehicle or xanomeline. • T 30 min to T 2.5 h: counting of accumulated fecal pellets excreted. • T+2.5 h to T+4.5 h: counting of accumulated fecal pellets excreted.
(§1) The total number of fecal pellets for each mouse was counted over time. An analysis of variance (ANOVA) was performed on the results. Fisher's Protected Least Significant Difference was used for pairwise comparisons. The p value ≤0.05 were considered significant. Grubbs' test (http//www atgraphpad.com/quickcalcs/Grubbs1.cfm) was used to detect outliers for each parameter in each experimental group.

Male Swiss mice [3] = experiment: T-maze continuous alternation task (T-CAT) with oxybutynin and xanomeline; type: in vivo; details: i.p. oxybutynin pretreatment 30 min before xanomeline
Source text: The T-maze continuous alternation task (T-CAT) is useful as model for studying compounds with cognitive enhancing properties. The T-maze consists of 2 choice arms and 1 start arm mounted to a square center. Manual doors are provided to close specific arms during the force choice alternation task.
Male Swiss mice (4-6 weeks old), N=10 per treatment group were used, and were pretreated with: • Oxybutynin at the dose that blocked fecal pellet excretion in Study 2 of Example 1.
Mice were randomly assigned to one of the different experimental treatment groups. Each animal was identified by its group name, cage number, series (day) of experiment, and number (1 to 10) written with permanent ink on the tail.
The T-maze apparatus is made of gray Plexiglas with a main stem (55 cm long×10 cm wide×20 cm high) and two arms (30 cm long×10 cm wide×20 cm high) positioned at 90 degree angle relative to the main stem. A start box (15 cm long×10 cm wide) is separated from the main stem by a guillotine door. […]
The percentage of alternation over the 14 free-choice trials was determined for each mouse and was used as an index of working memory performance. […]
Analysis of variance (ANOVA) was performed on the results. […] The drug-induced improvement of memory was calculated by setting the respective response of the saline/vehicle as 100% and that of the test group as 0% reversion. […]

[4] = transdermal [14C]oxybutynin, rats; cited from earlier work
Male Swiss mice [5] = experiment: Dose-response to xanomeline in a mouse model of diarrhea (fecal pellet count); type: in vivo; details: xanomeline i.p. 0.3 to 30 mg/kg
Source text: Male Swiss mice (4-6 weeks old), N=10 per treatment group were used, and treated intra-peritoneally (i.p.) with either vehicle (vehicle group) or increasing doses of xanomeline, a representative muscarinic agonist. Mice were randomly assigned to one of two experimental groups (vehicle; or increasing doses of xanomeline). Each animal was identified by its group name, cage number, series (day) of experiment, and number (1 to 10) written with permanent ink on the tail.
Mice were placed individually in cages without any bedding materials. During the experiment the number of fecal pellets were counted at different time-points, starting one hour before the time of the administration of the test compound (T0), as outlined below: • T−1 h to T0: counting of the accumulated fecal pellets excreted. • T0: administration of the test compound, • T0 to T+2 h: counting of the accumulated fecal pellets excreted. • T+2 h to T+4 h: counting of the accumulated fecal pellets excreted.
as §1, with “comparisons;” for “comparisons. The”, “values” for “value”, “(http://www.graphpad.com/quickcs/Grubbs1.cfm)” for “(http//www atgraphpad.com/quickcalcs/Grubbs1.cfm)”

[6] = test system: patients with Alzheimer disease; experiment: Xanomeline 6-month double-blind, placebo-controlled, parallel group trial in Alzheimer disease patients; type: in vivo, human; details: in view of Mirza 2003; i.e. 225 mg/day
Source text: A close analog of tazomeline, the 3-(4-hexyloxy-1,2,5-thiadiazol-3-yl)-1-methyl-5,6-dihydro-2H-pyridine known as xanomeline and described in U.S. Pat. No. 5,043,345, the disclosure of which is incorporated herein by reference in its entirety, has been disclosed as a muscarinic acetylcholine receptor agonist with reasonable selectivity for the M1 and M4 subtypes. The efficacy of xanomeline, which stimulates muscarinic receptors in the brain and in the periphery was studied in patients with Alzheimer disease in a 6-month double-blind, placebo-controlled, parallel group trial. […] Such side effects prevented the use of doses of xanomeline that could achieve maximum anti-dementia efficacy and reflect stimulation of cholinergic receptors outside the brain.
Dose-limiting adverse events attending the use of drugs that stimulate cholinergic transmission, such as xanomeline, appear to primarily reflect the excessive stimulation of peripheral cholinergic receptors, especially those of the muscarinic type (mAChRs), such that in both healthy volunteers and Alzheimer's patients many of these side effects have been reported for xanomeline; in the patient population this led to a discontinuation rate higher than 50% while the effects on cognition were not robust and mainly seen at the highest doses tested (Mirza2003).

[7] = clinical study, Sramek 1995; cited from earlier work
[8] = test system: patients with Alzheimer disease; details: cited from earlier work

O=c1[nH]c2ccccc2n1CCCN1CCC(n2c(=O)[nH]c3cc(Cl)ccc32)CC1 [domperidone, 5-chloro-1-(1-[3-(2-oxo-2,3-dihydro-1H-benzo[d]imidazol-1-yl)propyl]piperidin-4-yl)-1H-benzo[d]imidazol-2(3H)-one]
effect on BuTAC-induced vomiting (primate): mitigated

CO/N=C/C1=CCCN(C)C1 [milameline, (E)-N-methoxy-1-(1-methyl-1,2,5,6-tetrahydropyridin-3-yl)methanimine]
maximum tolerated dose [1]: 2 mg four times per day

CCN(CC)CC#CCOC(=O)C(O)(c1ccccc1)C1CCCCC1 (stereo not drawn) [oxybutynin, 4-diethylaminobut-2-ynyl 2-cyclohexyl-2-hydroxy-2-phenylethanoate]
antagonism of xanomeline-induced diarrhea (Male Swiss mice [2]): dose-dependently antagonized the diarrhea induced by xanomeline | ability to perform the T-maze test after oxybutynin pretreatment (Male Swiss mice [3]): restored the animals' ability to perform the T-maze test | brain penetration of radiolabel [4]: presence of radiolabel in the brain

CCCCCCOc1nsnc1C1=CCCN(C)C1 [xanomeline, 3-(4-hexyloxy-1,2,5-thiadiazol-3-yl)-1-methyl-5,6-dihydro-2H-pyridine]
diarrhea (fecal pellets excreted) (Male Swiss mice [5]): dose-dependently causes diarrhea | maximum tolerated dose as considered in the context of the present invention [6]: 75 mg three times per day | MTD [7]: 100 mg three times a day | patients who discontinued treatment ([8]; 75 mg xanomeline orally three times daily, 6-month study, mainly adverse events, predominantly gastrointestinal): 59% | cognitive and behavioral symptoms of Alzheimer disease compared to placebo ([8]; 6-month trial (Bodick 1997; Shekhar 2008)): significantly improve cognitive and behavioral symptoms | side effects (bradycardia, gastro-intestinal distress, excessive salivation, sweating) ([8]; 6-month trial): dose-dependent unacceptable side effects | discontinuation rate in the patient population ([8]; Alzheimer's patients (Mirza 2003)): higher than 50%

Reference: patent publication US10307409B2, “Muscarinic combinations and their use for combating hypocholinergic disorders of the central nervous system” (Chase Pharmaceuticals Corporation, priority 2015, dated 2019)
